This is an account of results in the supplement of paper PMC10307832.

Holding throughout (assay): relative viability (nuclei count vs DMSO), 5 days (fraction); higher = more cells survive
Compound in assay [1]: CN1C=C(C2=CC=CC=C21)/C=C\3/C4=C(C=CC=N4)NC3=O + O=C(CCCCCCC(=O)Nc1ccccc1)NO [Vorinostat] (partner 1 µM)
A digest of the protocol: (§1)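 Cells from lung cancer lines were seeded into 1536-well plates and, one day later, dosed by pin tool. Treatments were either a single drug or a fixed dose of an anchor drug with five library-drug doses (not always all listed) in √10 steps. After 5 days, nuclei were stained in a one-step fixation (final 0.05% Triton X-100, 1% formaldehyde, 1 ug/ml Hoechst) and counted on 4× images, and relative viability is the treated-to-vehicle nuclei ratio, as the median of duplicate plates.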

Compound in the assay “Trametinib + Lapatinib”: CC(=O)Nc1cccc(-n2c(=O)n(C3CC3)c(=O)c3c(Nc4ccc(I)cc4F)n(C)c(=O)c(C)c32)c1 [Trametinib] + CS(=O)(=O)CCNCc1ccc(-c2ccc3ncnc(Nc4ccc(OCc5cccc(F)c5)c(Cl)c4)c3c2)o1 [Lapatinib] (partner 2 µM)
A digest of the protocol:
as §1

Compound in the assay “Trametinib + Palbociclib”: CC(=O)Nc1cccc(-n2c(=O)n(C3CC3)c(=O)c3c(Nc4ccc(I)cc4F)n(C)c(=O)c(C)c32)c1 [Trametinib] + CC(=O)c1c(C)c2cnc(Nc3ccc(N4CCNCC4)cn3)nc2n(C2CCCC2)c1=O [Palbociclib] (partner 0.5 µM)
A digest of the protocol: as §1

Compound in the assay “Trametinib + Decitabine”: CC(=O)Nc1cccc(-n2c(=O)n(C3CC3)c(=O)c3c(Nc4ccc(I)cc4F)n(C)c(=O)c(C)c32)c1 [Trametinib] + Nc1ncn([C@H]2C[C@H](O)[C@@H](CO)O2)c(=O)n1 [Decitabine] (partner 2 µM)
The essentials: as §1

Regarding UMC-11, the relative viability in assay [1] (first compound 0.02 µM) stood at 0.323; in assay [1] (first compound 0.06325 µM) it was 0.301; in assay [1] (first compound 0.2 µM), 0.322; in assay [1] (first compound 0.6325 µM) it was 0.391; in assay [1] (first compound 2 µM), 0.36; with Trametinib + Lapatinib (first compound 0.0025 µM), 0.951. Further, the relative viability with Trametinib + Lapatinib (first compound 0.007906 µM) was found to be 0.973; in the assay with Trametinib + Lapatinib (first compound 0.025 µM), 0.348; with Trametinib + Lapatinib (first compound 0.07906 µM), 0.963; with Trametinib + Lapatinib (first compound 0.25 µM), 0.758; with Trametinib + Palbociclib (first compound 0.0025 µM), 0.32; with Trametinib + Palbociclib (first compound 0.007906 µM), 0.333. Also, the relative viability with Trametinib + Palbociclib (first compound 0.25 µM) is 0.312; with Trametinib + Decitabine (first compound 0.0025 µM), 0.548; with Trametinib + Decitabine (first compound 0.007906 µM), 0.674; with Trametinib + Decitabine (first compound 0.25 µM) it was 0.471.
